Reference: US20230148214A1, “INDAZOLES AND AZAINDAZOLES AS LRRK2 INHIBITORS” (ESCAPE Bio, Inc., priority 2020, published 2023)

Target: T1, LRRK2 WT (Homo sapiens, UniProt Q5S007)
T1 construct: purchased Life Technologies PR8604B
Experiment: LRRK2 Kinase Activity Assay (LanthaScreen TR-FRET), wild type
Assay type: biochemical
Settings: recombinant wild type LRRK2, 25 μM ATP, 400 nM LRRKtide, 60 min; class symbols
Description: LRRK2 kinase activity was measured using a LanthaScreen™ Kinase Activity Assay from ThermoFisher Scientific. Recombinant wild type or G2019S-LRRK2 protein (Life Technologies, PR8604B or PV4881, respectively), was incubated with a fluorescein-labeled peptide substrate called LRRKtide that is based upon ezrin/radixin/moesin (ERM) (Life Technologies, PV4901) in the presence of ATP and serially diluted compound. […] Compound-dependent inhibition of the TR-FRET signal was used to generate a concentration-response curve for IC50 determination.
After 60 min incubation at room temperature, the reaction was stopped by addition of 10 μL of 2×stop solution containing a final concentration of 2 nM anti-pERM antibody and 10 mM EDTA.

T1 sequence (Q5S007 whole entry): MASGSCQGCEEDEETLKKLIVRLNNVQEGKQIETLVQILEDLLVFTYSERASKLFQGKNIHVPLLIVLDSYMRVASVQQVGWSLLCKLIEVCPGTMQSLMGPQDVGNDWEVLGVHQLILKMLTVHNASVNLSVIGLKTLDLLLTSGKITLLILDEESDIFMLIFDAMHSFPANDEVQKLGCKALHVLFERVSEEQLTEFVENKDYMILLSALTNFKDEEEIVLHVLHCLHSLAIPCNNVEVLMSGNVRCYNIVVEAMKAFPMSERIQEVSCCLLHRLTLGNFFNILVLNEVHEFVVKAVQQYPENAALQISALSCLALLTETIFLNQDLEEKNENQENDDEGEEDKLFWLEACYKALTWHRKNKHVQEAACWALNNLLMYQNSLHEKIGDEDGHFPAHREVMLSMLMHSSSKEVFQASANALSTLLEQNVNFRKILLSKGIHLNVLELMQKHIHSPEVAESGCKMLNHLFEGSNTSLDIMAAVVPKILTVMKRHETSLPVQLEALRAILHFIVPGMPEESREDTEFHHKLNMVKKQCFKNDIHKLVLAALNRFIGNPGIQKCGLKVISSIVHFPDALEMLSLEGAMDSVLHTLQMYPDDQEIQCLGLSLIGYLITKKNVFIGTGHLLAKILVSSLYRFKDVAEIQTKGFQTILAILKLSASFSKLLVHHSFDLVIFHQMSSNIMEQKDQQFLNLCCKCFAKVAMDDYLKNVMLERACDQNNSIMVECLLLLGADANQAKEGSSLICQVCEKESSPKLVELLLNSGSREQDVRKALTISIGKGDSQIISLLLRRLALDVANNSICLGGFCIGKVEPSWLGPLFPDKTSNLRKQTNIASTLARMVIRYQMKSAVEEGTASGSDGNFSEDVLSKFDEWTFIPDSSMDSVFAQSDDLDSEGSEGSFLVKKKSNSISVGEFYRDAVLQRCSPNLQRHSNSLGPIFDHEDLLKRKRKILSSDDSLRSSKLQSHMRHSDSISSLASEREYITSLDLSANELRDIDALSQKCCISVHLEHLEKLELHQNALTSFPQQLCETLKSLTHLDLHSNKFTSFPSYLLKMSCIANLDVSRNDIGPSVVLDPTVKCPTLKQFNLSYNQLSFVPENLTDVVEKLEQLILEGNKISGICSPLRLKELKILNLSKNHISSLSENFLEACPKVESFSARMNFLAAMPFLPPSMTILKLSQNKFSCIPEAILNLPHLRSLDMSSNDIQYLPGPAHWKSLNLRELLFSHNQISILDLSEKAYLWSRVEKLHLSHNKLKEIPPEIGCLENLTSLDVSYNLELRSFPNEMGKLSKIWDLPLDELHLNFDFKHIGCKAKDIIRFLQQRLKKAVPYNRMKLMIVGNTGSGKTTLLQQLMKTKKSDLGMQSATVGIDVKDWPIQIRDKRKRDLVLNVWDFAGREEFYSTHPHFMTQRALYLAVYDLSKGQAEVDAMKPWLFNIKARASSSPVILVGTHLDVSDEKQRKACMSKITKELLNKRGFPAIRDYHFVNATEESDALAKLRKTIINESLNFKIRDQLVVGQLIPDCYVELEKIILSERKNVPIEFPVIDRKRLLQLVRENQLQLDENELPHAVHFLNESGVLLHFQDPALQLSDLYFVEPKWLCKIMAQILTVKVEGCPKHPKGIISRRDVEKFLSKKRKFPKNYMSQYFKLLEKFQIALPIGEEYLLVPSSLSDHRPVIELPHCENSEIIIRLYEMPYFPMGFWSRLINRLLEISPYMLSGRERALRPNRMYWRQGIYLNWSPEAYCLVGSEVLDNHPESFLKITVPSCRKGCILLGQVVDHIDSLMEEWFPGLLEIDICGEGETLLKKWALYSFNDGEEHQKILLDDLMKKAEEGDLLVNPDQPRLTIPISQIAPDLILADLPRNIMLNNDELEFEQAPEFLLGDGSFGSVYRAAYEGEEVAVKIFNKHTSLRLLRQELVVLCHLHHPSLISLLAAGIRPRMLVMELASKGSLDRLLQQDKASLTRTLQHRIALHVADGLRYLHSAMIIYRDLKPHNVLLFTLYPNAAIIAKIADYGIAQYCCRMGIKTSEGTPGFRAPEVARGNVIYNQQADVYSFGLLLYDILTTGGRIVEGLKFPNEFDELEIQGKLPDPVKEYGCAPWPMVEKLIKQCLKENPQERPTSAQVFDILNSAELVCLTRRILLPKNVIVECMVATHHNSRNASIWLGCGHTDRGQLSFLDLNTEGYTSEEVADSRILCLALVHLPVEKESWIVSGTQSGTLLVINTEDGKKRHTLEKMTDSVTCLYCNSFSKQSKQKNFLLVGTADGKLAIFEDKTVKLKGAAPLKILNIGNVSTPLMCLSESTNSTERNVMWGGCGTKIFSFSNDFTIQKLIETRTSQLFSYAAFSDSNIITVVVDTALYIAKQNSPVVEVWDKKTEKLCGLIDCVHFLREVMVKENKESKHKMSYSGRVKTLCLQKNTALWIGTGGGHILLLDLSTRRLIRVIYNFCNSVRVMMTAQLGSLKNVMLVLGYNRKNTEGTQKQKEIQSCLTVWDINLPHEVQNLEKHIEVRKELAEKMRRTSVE

SMILES | IC50 [µM]
N#Cc1cccc2c1[C@@H](Oc1ccc3[nH]nc(-c4cnco4)c3c1)CC2 (single isomer, unassigned) [Example 37, enantiomer 2, 3-((3-(Oxazol-5-yl)-1H-indazol-5-yl)oxy)-2,3-dihydro-1H-indene-4-carbonitrile] | < 0.1
N#Cc1ccc2c(c1)CCC[C@@H]2Oc1ccc2[nH]nc(-c3ccnc(N4CCOCC4)c3)c2c1 (single isomer, unassigned) [Example 39, enantiomer 2, 5-((3-(2-Morpholinopyridin-4-yl)-1H-indazol-5-yl)oxy)-5,6,7,8-tetrahydronaphthalene-2-carbonitrile] | < 0.1
COc1cc(-c2n[nH]c3ccc(N[C@H]4CCc5cc(C#N)ccc54)cc23)ccn1 (single isomer, unassigned) [Example 40, enantiomer 2, 1-((3-(2-Methoxypyridin-4-yl)-1H-indazol-5-yl)amino)-2,3-dihydro-1H-indene-5-carbonitrile] | < 0.1
N#Cc1cc2c(nn1)[C@@H](Oc1ccc3[nH]nc(-c4cnco4)c3c1)CC2 (single isomer, unassigned) [Example 41, enantiomer 2, 7-((3-(Oxazol-5-yl)-1H-indazol-5-yl)oxy)-6,7-dihydro-5H-cyclopenta[c]pyridazine-3-carbonitrile] | < 0.1
N#Cc1ccc2c(c1)CC(F)(F)[C@@H]2Nc1ccc2[nH]nc(-c3cnco3)c2c1 (single isomer, unassigned) [Example 42, enantiomer 2, 2,2-Difluoro-1-((3-(oxazol-5-yl)-1H-indazol-5-yl)amino)-2,3-dihydro-1H-indene-5-carbonitrile] | < 0.1
N#Cc1cnc2c(c1)C1CC1[C@@H]2Nc1ccc2[nH]nc(-c3cnco3)c2c1 (single isomer, unassigned) [Example 48, enantiomer 2, 6-((3-(Oxazol-5-yl)-1H-indazol-5-yl)amino)-4b,5,5a,6-tetrahydrocyclopropa[3,4]cyclopenta[1,2-b]pyridine-3-carbonitrile] | < 0.1
N#Cc1ccc2c(c1F)CC[C@@H]2Oc1ccc2[nH]nc(-c3cnn(C(F)F)c3)c2c1 (single isomer, unassigned) [Example 51, enantiomer 2, 1-((3-(1-(Difluoromethyl)-1H-pyrazol-4-yl)-1H-indazol-5-yl)oxy)-4-fluoro-2,3-dihydro-1H-indene-5-carbonitrile] | < 0.1
Cc1c(C#N)ccc2c1CC[C@@H]2Nc1ccc2[nH]nc(-c3cnn(C(F)F)c3)c2c1 (single isomer, unassigned) [Example 52, enantiomer 2, 1-((3-(1-(Difluoromethyl)-1H-pyrazol-4-yl)-1H-indazol-5-yl)amino)-4-methyl-2,3-dihydro-1H-indene-5-carbonitrile] | < 0.1
COc1c(C#N)ccc2c1CCC[C@@H]2Nc1ccc2[nH]nc(-c3cnco3)c2c1 (single isomer, unassigned) [Example 101, enantiomer 2, 1-Methoxy-5-{[3-(1,3-oxazol-5-yl)-1H-indazol-5-yl]amino}-5,6,7,8-tetrahydronaphthalene-2-carbonitrile] | < 0.1
N#Cc1cnc2c(c1)CC[C@@H]2Oc1ccc2[nH]nc(-c3cnco3)c2c1 (single isomer, unassigned) [Example 103, enantiomer 2, 7-((3-(Oxazol-5-yl)-1H-indazol-5-yl)oxy)-6,7-dihydro-5H-cyclopenta[b]pyridine-3-carbonitrile] | < 0.1
Cc1nc2c(cc1C#N)CCC[C@@H]2Nc1ccc2[nH]nc(-c3cnco3)c2c1 (single isomer, unassigned) [Example 106, enantiomer 2, 2-Methyl-8-((3-(oxazol-5-yl)-1H-indazol-5-yl)amino)-5,6,7,8-tetrahydroquinoline-3-carbonitrile] | < 0.1
Cc1c(C#N)cnc2c1CC[C@@H]2Nc1ccc2[nH]nc(-c3cnco3)c2c1 (single isomer, unassigned) [Example 108, enantiomer 2, 4-Methyl-7-((3-(oxazol-5-yl)-1H-indazol-5-yl)amino)-6,7-dihydro-5H-cyclopenta[b]pyridine-3-carbonitrile] | < 0.1
N#Cc1cc2c(nc1Cl)[C@@H](Nc1ccc3[nH]nc(-c4cnco4)c3c1)CCC2 (single isomer, unassigned) [Example 112, enantiomer 2, 2-Chloro-8-((3-(oxazol-5-yl)-1H-indazol-5-yl)amino)-5,6,7,8-tetrahydroquinoline-3-carbonitrile] | < 0.1
COc1c(C#N)ccc2c1CC[C@@H]2Nc1ccc2[nH]nc(-c3cnco3)c2c1 (single isomer, unassigned) [Example 113, enantiomer 2, 4-Methoxy-1-((3-(oxazol-5-yl)-1H-indazol-5-yl)amino)-2,3-dihydro-1H-indene-5-carbonitrile] | < 0.1
CCc1cc(-c2n[nH]c3ccc(N[C@H]4CCCc5cc(C#N)ccc54)cc23)ccn1 (single isomer, unassigned) [Example 116, enantiomer 2, 5-((3-(2-Ethylpyridin-4-yl)-1H-indazol-5-yl)amino)-5,6,7,8-tetrahydronaphthalene-2-carbonitrile] | < 0.1
Cc1c(C#N)ccc2c1CC[C@H]2Nc1ccc2[nH]nc(-c3cnoc3)c2c1 (single isomer, unassigned) [Example 118, enantiomer 2, 1-((3-(Isoxazol-4-yl)-1H-indazol-5-yl)amino)-4-methyl-2,3-dihydro-1H-indene-5-carbonitrile] | < 0.1
N#Cc1ccc2c(c1)CCC[C@H]2Nc1ccc2[nH]nc(-c3cnco3)c2c1 (single isomer, unassigned) [Example 119, enantiomer 2, 5-((3-(Oxazol-5-yl)-1H-indazol-5-yl)amino)-5,6,7,8-tetrahydronaphthalene-2-carbonitrile] | < 0.1
N#Cc1cnc2c(c1)CCC[C@H]2Nc1ccc2[nH]nc(-c3cnco3)c2c1 (single isomer, unassigned) [Example 120, enantiomer 2, 8-((3-(Oxazol-5-yl)-1H-indazol-5-yl)amino)-5,6,7,8-tetrahydroquinoline-3-carbonitrile] | < 0.1
CCc1cc(-c2n[nH]c3ccc(O[C@@H]4CCCc5cc(C#N)cnc54)cc23)ccn1 (single isomer, unassigned) [Example 121, enantiomer 2, 8-((3-(2-Ethylpyridin-4-yl)-1H-indazol-5-yl)oxy)-5,6,7,8-tetrahydroquinoline-3-carbonitrile] | < 0.1
N#Cc1cc2c(cn1)[C@H](Oc1ccc3[nH]nc(-c4cnco4)c3c1)CCC2 (single isomer, unassigned) [Example 122, enantiomer 2, 8-((3-(Oxazol-5-yl)-1H-indazol-5-yl)oxy)-5,6,7,8-tetrahydroisoquinoline-3-carbonitrile] | < 0.1
COc1cc(-c2n[nH]c3ccc(O[C@H]4CCCc5cc(C#N)cnc54)cc23)ccn1 (single isomer, unassigned) [Example 123, enantiomer 2, 8-((3-(2-Methoxypyridin-4-yl)-1H-indazol-5-yl)oxy)-5,6,7,8-tetrahydroquinoline-3-carbonitrile] | < 0.1
Cc1c(C#N)ccc2c1CC[C@@H]2Nc1ccc2[nH]nc(I)c2c1 (single isomer, unassigned) [Example 127, enantiomer 2, 1-((3-Iodo-1H-indazol-5-yl)amino)-4-methyl-2,3-dihydro-1H-indene-5-carbonitrile] | 0.1 to 1
Cc1n[nH]c2ccc(N[C@H]3CCc4c(C#N)cccc43)cc12 (single isomer, unassigned) [Example 129, enantiomer 2, 1-((3-Methyl-1H-indazol-5-yl)amino)-2,3-dihydro-1H-indene-4-carbonitrile] | 0.1 to 1
Cc1cc(C#N)cc2c1[C@@H](Nc1ccc3[nH]nc(-c4cnco4)c3c1)CC2 (single isomer, unassigned) [Example 131, enantiomer 2, 7-Methyl-1-((3-(oxazol-5-yl)-1H-indazol-5-yl)amino)-2,3-dihydro-1H-indene-5-carbonitrile] | < 0.1
N#Cc1cc(F)c2c(c1)CC[C@H]2Nc1ccc2[nH]nc(-c3cnco3)c2c1 (single isomer, unassigned) [Example 132, enantiomer 2, 5-((5-Cyano-7-fluoro-2,3-dihydro-1H-inden-1-yl)amino)-3-(oxazol-5-yl)-1H-indazol-2-ium] | < 0.1
N#Cc1cnc2c(c1)CCC[C@@H]2Oc1ccc2[nH]nc(-c3cnn(C(F)F)c3)c2c1 (single isomer, unassigned) [Example 141, enantiomer 2, 8-((3-(1-(Difluoromethyl)-1H-pyrazol-4-yl)-1H-indazol-5-yl)oxy)-5,6,7,8-tetrahydroquinoline-3-carbonitrile] | < 0.1
N#Cc1cnc2c(c1)CCC[C@@H]2Nc1ccc2[nH]nc(-c3cncs3)c2c1 (single isomer, unassigned) [Example 142, enantiomer 2, 8-((3-(Thiazol-5-yl)-1H-indazol-5-yl)amino)-5,6,7,8-tetrahydroquinoline-3-carbonitrile] | < 0.1
N#Cc1ccc2c(c1Cl)CCC[C@@H]2Nc1ccc2[nH]nc(-c3cnco3)c2c1 (single isomer, unassigned) [Example 143, enantiomer 2, 1-Chloro-5-((3-(oxazol-5-yl)-1H-indazol-5-yl)amino)-5,6,7,8-tetrahydronaphthalene-2-carbonitrile] | < 0.1
N#Cc1cnc2c(c1C(F)(F)F)CCC[C@@H]2Nc1ccc2[nH]nc(-c3cnco3)c2c1 (single isomer, unassigned) [Example 145, enantiomer 2, 8-((3-(Oxazol-5-yl)-1H-indazol-5-yl)amino)-4-(trifluoromethyl)-5,6,7,8-tetrahydroquinoline-3-carbonitrile] | < 0.1
